Results: patent publication US20260240838A1, “USE OF NITRONE COMPOUNDS OR PHARMACEUTICALLY ACCEPTABLE SALTS THEREOF IN COMBINATION WITH SGLT-2 INHIBITORS” (GUANGZHOU MAGPIE PHARMACEUTICALS CO., LTD., priority 2022, published 2026)

Experiments:
[1] = test system: Patients of type II diabetic kidney disease; experiment: Clinical trial of TBN and TBN + SGLT2i: change of UACR relative to baseline (Example 3); assay type: in vivo, human
Procedure: The present invention adopts a test design of multicenter, randomized, double-blind, placebo-controlled parallel control.
Subjects of the experiments: Patients of type II diabetic kidney disease were taken as the subjects in the experiments (all signed the informed consent form). In at least 2 of the 3 morning urine in the screening period, the urinary microalbumin/creatinine ratio (UACR) is of ≥30 mg/g and <300 mg/g.
The medication schedule: Administration of 180 consecutive days. In this example, SGLT2i is commercially available SGLT2i, selected from Engliflozin, Dapagliflozin, and Cargliflozin: Engliflozin once daily, 10 mg; Dapagliflozin once daily, 10 mg; Kagliflozin once daily, 100 mg. In the three subjects in the 300 mg TBN+SGLT2i group, one subject took Engliflozin and two subjects took Dapagliflozin; in the three subjects in the 600 mg TBN+SGLT2i group, all took Dapagliflozin; in the […] in the 1200 mg TBN+SGLT2i group, two subjects took Canagliflozin, one subject took Entegliflozin, and one subject took Dapagliflozin; in the SGLT2i group, one subject took Dapagliflozin.

db/db mice [2] = experiment: Detection of 24-hour urinary microalbumin in db/db mice by ELISA kit (Example 1); assay type: in vivo; settings: for Changes in urinary microalbumin: 24-hour urine, compared to Model group; for 24-hour urinary microalbumin (in words): in combination with a SGLT-2 inhibitor
Excerpt: (§1) Db/db mice are type II diabetes mice caused by leptin receptor gene defect located on chromosome 4. They began to drink, eat, urinate and be obese at the age of 4 weeks. With the increase of age, they have obvious characteristics of hyperglycemia, hyperlipidemia and insulin resistance. Their pathogenesis is very similar to that of type II diabetes patients. With the aggravation of diabetes, db/db mice have a series of complications. The main pathological changes of kidney tissue are dilation of glomerular mesangial interstitium, thickening of glomerular basement membrane, excessive accumulation of extracellular matrix, etc. It is a good model to study the early morphological changes of DKD kidney.
(§2) 6-week-old db/db mice were given adaptive feeding for 1 week (i.e. 7 weeks), with TBN and TN-2 administered separately and in combination with Empagliflozin twice a day (fixed at 9:00-10:00 am and 3:00-4:00 pm, with an interval of 6 hours), for a continuous 6 weeks of administration.
Db/db mice were tested for 24-hour urinary microalbumin at 4 and 6 weeks after drug treatment. Each group of mice was placed in a metabolic cage, drinking water freely, and 24-hour urine samples were collected. After centrifugation and precipitation, the levels of microalbuminuria in the 24-hour urine of each group of mice were detected using an ELISA kit.

IL-6 = experiment: Detection of the level of IL-6 in serum of db/db mice by ELISA kit (Example 1); assay type: in vivo; settings: for Changes in IL-6: 6 weeks, serum of db/db mice, compared to Model group; for content of IL-6 in the serum of model animals (in words): alone or in combination with a SGLT-2 inhibitor (such as Entegliflozin)
Excerpt: as §1, §2
(§3) After 6 weeks of administration, the whole blood was left to stand at room temperature for 1 hour. Then, it was transferred to a centrifuge and centrifuged at 3000 rpm for 10 minutes. The upper layer of serum was taken out and placed in an EP tube and stored in a −20° C. freezer for later use. Detection the level of IL-6 and IL-1β in serum of mice in each group using ELISA kit.

IL-1β = experiment: Detection of the level of IL-1β in serum of db/db mice by ELISA kit (Example 1); assay type: in vivo; settings: 6 weeks, compared to Model group
Excerpt: as §1, §2, §3

db/db mice [3] = experiment: Urinary albumin creatinine ratio in db/db mice; assay type: in vivo; settings: in combination with a SGLT-2 inhibitor
db/db mice [4] = experiment: Blood glucose testing in db/db mice, TBN/TN-2 alone and with Empagliflozin (Example 1); assay type: in vivo; settings: for Changes in blood glucose: 6 weeks, compared to Model group; for blood sugar (in words): in combination with a SGLT-2 inhibitor
Excerpt: as §1, §2
During the experiment, blood was collected from the tail vein of mice before the start of administration (7 weeks old) to measure their blood glucose levels; After the completion of administration (at 13 weeks of mouse age, i.e. the end of the experiment), serum was taken and the blood glucose levels of each group of mice were measured using a fully automated biochemical analyzer.

[5] = FAERS-based analysis, rank order; cited from earlier work
[6] = Empagliflozin 2.5 mg/kg twice/day i.g.
[7] = Empagliflozin 5 mg/kg twice/day i.g.

Cc1nc(C)c(/C=[N+](\[O-])C(C)(C)C)nc1C [TBN, tetramethylpyrazine nitrone]
Percentage of changes in UACR relative baseline, Day 90 LS Mean ([1]; TBN 300 mg twice/day po, n = 18, Day 90): −1.48%
Percentage of changes in UACR relative baseline, Day 90 LS Mean ([1]; TBN 600 mg twice/day po, n = 19, Day 90): −43.32%
Percentage of changes in UACR relative baseline, Day 90 LS Mean ([1]; TBN 1200 mg twice/day po, n = 14, Day 90): −37.08%
Changes in urinary microalbumin (db/db mice [2]; TBN 10 mg/kg twice/day i.g.): −0.61%
Changes in urinary microalbumin (db/db mice [2]; TBN 30 mg/kg twice/day i.g.): −23.09%
24-hour urinary microalbumin (in words) (db/db mice [2]): reduce
Changes in IL-6 (IL-6; TBN 10 mg/kg twice/day i.g.): −36.43%
Changes in IL-6 (IL-6; TBN 30 mg/kg twice/day i.g.): −58.34%
content of IL-6 in the serum of model animals (in words) (IL-6): significantly reduce
Changes in IL-1β (IL-1β; TBN 10 mg/kg twice/day i.g.): −5.88%
Changes in IL-1β (IL-1β; TBN 30 mg/kg twice/day i.g.): 0.20%
urinary albumin creatinine ratio (in words) (db/db mice [3]): reduce
Changes in blood glucose (db/db mice [4]; TBN 10 mg/kg twice/day i.g.): −0.80%
Changes in blood glucose (db/db mice [4]; TBN 30 mg/kg twice/day i.g.): −17.13%
blood sugar (in words) (db/db mice [4]): synergistically lower

CCOc1ccc(Cc2cc([C@@H]3O[C@H](CO)[C@@H](O)[C@H](O)[C@H]3O)ccc2Cl)cc1 [Dapagliflozin]
signal intensity comparison of urinary tract infections [5]: dapagliflozin>canagliflozin>empagliflozin

OC[C@H]1O[C@@H](c2ccc(Cl)c(Cc3ccc(O[C@H]4CCOC4)cc3)c2)[C@H](O)[C@@H](O)[C@@H]1O [Empagliflozin, reference compound]
Changes in urinary microalbumin (db/db mice [2]; [6]): −4.18%
Changes in urinary microalbumin (db/db mice [2]; [7]): −18.62%
Changes in IL-6 (IL-6; [6]): −8.55%
Changes in IL-6 (IL-6; [7]): −75.05%
Changes in IL-1β (IL-1β; [6]): −2.36%
Changes in IL-1β (IL-1β; [7]): −16.32%
signal intensity comparison of urinary tract infections [5]: dapagliflozin>canagliflozin>empagliflozin
Changes in blood glucose (db/db mice [4]; [6]): −38.03%
Changes in blood glucose (db/db mice [4]; [7]): −44.33%

Cc1nc(/C=[N+](\[O-])C(C)(C)C)c(C)nc1/C=[N+](\[O-])C(C)(C)C [TN-2]
24-hour urinary microalbumin (in words) (db/db mice [2]): reduce
content of IL-6 in the serum of model animals (in words) (IL-6): significantly reduce
urinary albumin creatinine ratio (in words) (db/db mice [3]): reduce
blood sugar (in words) (db/db mice [4]): synergistically lower
